Measurements: patent US20220401343A1, “ORAL CARE COMPOSITIONS FOR GUM HEALTH” (The Procter & Gamble Company, priority 2020, published 2022)

Columns and labels:
[1] = test system: Primary Human Gingival Fibroblasts (HGF); assay: Test 1: In-Vitro Human Gingival Fibroblasts Soluble Collagen Assay (Sircol); type: cell-based; settings: for increase in collagen productivity vs. base control: Table 7 data, difference to base control
Description: Stage 1: Culturing Primary Human Gingival Fibroblasts (“HGF”): Primary Human Gingival Fibroblasts (“HGF”) were collected from tooth extraction patients and washed with 5 mL of PBS (phosphate buffered saline). The tissues were chopped into small pieces and placed into 15 mL centrifuge tube. The samples were digested with equal amounts of 1 mL 8% dispase and 1 mL 6% collagenase for 1 hr at 37° C., during which time the samples need to be shaken every 15 minutes. Once the digestion process was complete, the tube was centrifuged at 1100 r.p.m. for 6 minutes at room temperature. After centrifugation, a pellet of cells was formed in the bottom of the tube separating them from the supernatant solution. Then the supernatant was discarded and the cell pellet was suspended in 3 mL of fresh Minimum Essential Medium (“MEM”, available from Thermo Fisher) culture medium then transferred to a petri dish. The petri dish with cells were placed in the incubator at 37° C. with 5% CO2 for about 10 days. The petri dish was checked for changes in medium color every two days. Fresh culture medium was replaced if changes in medium color occurred.
Stage 2: Treatment with Compositions: Sub-Culturing Human Gingival Fibroblasts: When there was 80-90% cell monolayer coverage of the petri dish, the present culture medium was removed and washed with 5 mL of PBS. 1 mL 0.25% trypsin-EDTA solution was added and the cells sat for about 1-2 minutes at 37° C. until the cells were visibly round-shaped. It was occasionally necessary to tap the petri dish to remove any sticky cells from the petri dish surface. At least 1 mL of fresh MEM culture medium was added to inactivate the trypsin and the cells are collected into a 15 mL centrifuge tube. The tube was then centrifuged at 1100 r.p.m. for 6 minutes at room temperature. The supernatant was discarded and cell pellet is re-suspend-ed in 4 mL of fresh MEM culture medium in the same centrifuge tube. Petri dishes were each placed with 1 mL cell suspension and 9 mL fresh MEM culture medium in the incubator at 37° C. with 5% CO2 for about 3-5 days until 80-90% cell monolayer coverage on the petri dishes was observed.
When there was 80-90% cell monolayer coverage on the petri dishes, cells were re-suspended in 6 mL of fresh MEM culture medium. 1 mL cell suspension and 1 mL fresh MEM culture medium were respectively added into each well of a 6-well plate. The cells were further washed with 2 mL PBS to remove any suspended cells until no suspended cells are visible. […] Cells were maintained in the incubator at 37° C. with 5% CO2 for 72 hours.
Stage 3 Soluble Collagen Assay: Soluble collagen (types I to V) levels were measured by Sircol collagen assay kit (available from Biocolor, UK). After treatment, cells were washed two times with chilled PBS and homogenized with 6M urea. The cell homogenates were centrifuged at 15,000 r.p.m. for 15 min. 100 μL of the supernatant was mixed with 1 mL of Sircol Dye Reagent for 30 minutes. During this time period, a collagen-dye complex formed and precipitated out from the soluble unbound dye. The tubes were transferred to a microcentrifuge and spun at 12,000 r.p.m. for 10 minutes. The tubes were carefully inverted and drained. 750 μL ice-cold Acid-Salt Wash Reagent was gently added to the collagen-dye pellet to remove unbound dye from the surface of the pellet and the inside surface of the microcentrifuge tube. The tube was then centrifuged at 12,000 r.p.m. for 10 minutes. The supernatant was drained into a waste container and any fluid from the lip of the tubes was removed using cotton wool buds. 250 μL of Alkali Reagent was added to each tube to fully release the collagen bound dye. 200 μL of each sample was transferred to individual wells of a 96 micro well plate, keeping a record map of the contents of each well from A1 to H12.

[2] = test system: collagen genes COL1A1 and COL1A2 in skin dermis; assay: Compound Screening on Skin Dermis: collagen gene expression (microarray) after topical treatment; type: in vivo, human; settings: dorsal forearm twice daily, four weeks, vs vehicle, retinol at 0.2%, Pal-KTTKS at 100 ppm, p-value in brackets in the cell
From the text: To screen compounds, 30 to 40 female subjects with Fitzpatrick skin types I-III, aged 60-70. At Baseline, each subject was assigned to test each treatment. The products were applied to the dorsal forearm twice daily. Topical treatment with a minimally efficacious moisturizer was used as the vehicle for each test compound and as the negative control.
After four weeks of treatment, one 4-mm punch biopsy was taken from each treated site. The dermis was separated and snap-frozen in liquid nitrogen and stored at −80° C. until assayed. The frozen tissue was then processed for gene expression analysis. To determine gene expression levels, RNA was extracted, labeled with biotin, hybridized and analyzed using Affymetrix GeneTitan® U219 microarray plates according to the manufacturer's instructions.
For genomics analysis, microarray sample quality was assessed using principal components analysis and MA-plots. Treatment to negative control comparisons for the microarray data were assessed using ANOVA models fitted separately for each probe set. ANOVA model hypothesis tests were evaluated using the Empirical Bayes method available in the limma R package. A p-value cutoff of 0.05 or less was consider statistically significant.

[3] = Table 5, 1% composition in culture medium, 72 hours

Compound	increase in collagen productivity vs. base control [1]	COL1A1 LFC (Log base 2 of the average Fold Change) [2]	COL1A2 LFC (Log base 2 of the average Fold Change) [2]	COL1A1 LFC (Log base 2 of the average Fold Change) ([2]; listed as retinol)	COL1A2 LFC (Log base 2 of the average Fold Change) ([2]; listed as retinol)	Collagen Productivity (Collagen/Cell) [1, 3]	Total Cell Count Cell [1, 3]	Total Collagen ([1]; Table 5, retinoids at 20 ppm in composition, 1% composition in culture medium, 72 hours)	Collagen Productivity (Collagen/Cell) ([1]; Table 6, 1:100 dilution)	Total Cell Count Cell ([1]; Table 6, 1:100 dilution)	Collagen Productivity ([1]; Table 7, 1:100 dilution)	Total Cell Count Cell ([1]; Table 7, 1:100 dilution)	Total Collagen ([1]; Table 7, 1:100 dilution)	Collagen Productivity (Collagen/Cell) ([1]; Table 9, 1:50 dilution)	Total Cell Count Cell ([1]; Table 9, 1:50 dilution)	Total Collagen ([1]; Table 9, 1:50 dilution)
palmitoyl-lys-thr-thr-lys-ser [Pal-KTTKS]	0.24															
CC1=C(/C=C/C(C)=C/C=C/C(C)=C/CO)C(C)(C)CCC1 [Retinol, retinol]	0.30	−0.10 (0.93)	−0.022 (0.88)	did not demonstrate significant regulation	did not demonstrate significant regulation											
TGF-B						5.17	2.60 ×10^5	13.44 ug/100 ul	4.86	2.72 ×10^5	4.86 ug per 10^5 cells/100 ul	2.72 ×10^5	13.24 ug/100 ul	5.17	2.60 ×10^5	13.44 ug/100 ul
